Assay results reported in US10556907B2 (AbbVie Inc., priority 2015, dated 2020).

Tests used:
Test in all cases: Method 1: intracellular Ca2+ release (FLIPR, Calcium 5) in recombinant CHO-K1 cells
Format in all cases: cell-based
[1] = target: T1, human S1PR5 receptor (Homo sapiens, UniProt Q9H228); details: agonist potency, determined with method 1 (symbols A-D); read-out: S1P5 EC50 range
T1 construct: host or cells: CHO-K1
Method in brief: (§1)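 CHO-K1 cells co-expressing the receptor, aequorin and Gq/i5 were loaded with Calcium 5 dye 1 h at 37° C, then held 45 min at RT. Serially diluted compounds added in HBSS/20 mmol/L Hepes/2.5 mmol/L probenecid/0.1% BSA pH 7.4. FLIPR Tetra fluorescence, normalized to phospho-fingolimod, fitted for EC50.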

[2] = target: T2, human S1PR4 receptor (Homo sapiens, UniProt O95977); details: (1): determined with method 1; read-out: S1P4 EC50
T2 construct: host or cells: CHO-K1
T2 sequence (O95977 1-384): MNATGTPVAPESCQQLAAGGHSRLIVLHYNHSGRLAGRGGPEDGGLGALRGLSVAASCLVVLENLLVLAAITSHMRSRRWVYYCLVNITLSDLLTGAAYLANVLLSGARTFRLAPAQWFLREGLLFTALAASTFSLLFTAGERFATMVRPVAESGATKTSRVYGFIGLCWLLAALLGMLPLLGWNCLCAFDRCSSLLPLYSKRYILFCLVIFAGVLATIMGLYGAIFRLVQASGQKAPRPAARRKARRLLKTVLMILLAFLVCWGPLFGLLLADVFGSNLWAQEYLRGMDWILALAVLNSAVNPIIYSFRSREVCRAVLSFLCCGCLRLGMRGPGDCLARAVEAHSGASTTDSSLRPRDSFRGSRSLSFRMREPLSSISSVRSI
Method in brief: as §1

[3] = target: T3, human S1PR3 receptor (Homo sapiens, UniProt Q99500); details: (1): determined with method 1; read-out: S1P3 EC50
T3 construct: host or cells: CHO-K1
T3 sequence (Q99500 whole entry): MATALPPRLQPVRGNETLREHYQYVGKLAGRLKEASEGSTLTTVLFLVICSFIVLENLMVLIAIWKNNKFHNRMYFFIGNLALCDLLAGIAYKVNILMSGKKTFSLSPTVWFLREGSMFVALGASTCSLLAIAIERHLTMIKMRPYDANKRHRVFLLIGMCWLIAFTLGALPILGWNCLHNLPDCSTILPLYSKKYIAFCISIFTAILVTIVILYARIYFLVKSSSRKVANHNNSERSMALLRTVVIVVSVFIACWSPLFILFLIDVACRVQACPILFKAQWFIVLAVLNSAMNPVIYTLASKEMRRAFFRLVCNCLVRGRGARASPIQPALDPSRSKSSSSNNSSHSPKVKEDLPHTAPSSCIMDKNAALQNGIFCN
Method in brief: as §1

[4] = target: T4, human S1PR1 receptor (Homo sapiens, UniProt P21453); details: (1): determined with method 1; read-out: S1P1 EC50
T4 construct: host or cells: CHO-K1
T4 sequence (P21453 whole entry): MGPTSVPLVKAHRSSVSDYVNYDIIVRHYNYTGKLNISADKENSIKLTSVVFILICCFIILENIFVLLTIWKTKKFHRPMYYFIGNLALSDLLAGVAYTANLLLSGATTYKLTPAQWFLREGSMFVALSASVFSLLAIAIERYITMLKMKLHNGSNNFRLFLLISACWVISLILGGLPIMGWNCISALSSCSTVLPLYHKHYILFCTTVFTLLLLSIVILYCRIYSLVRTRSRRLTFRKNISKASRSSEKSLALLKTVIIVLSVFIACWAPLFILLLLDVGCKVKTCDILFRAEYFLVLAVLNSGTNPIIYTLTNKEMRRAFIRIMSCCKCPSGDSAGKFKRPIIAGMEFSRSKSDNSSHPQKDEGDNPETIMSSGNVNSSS
Method in brief: as §1

T1 sequence (Q9H228 whole entry): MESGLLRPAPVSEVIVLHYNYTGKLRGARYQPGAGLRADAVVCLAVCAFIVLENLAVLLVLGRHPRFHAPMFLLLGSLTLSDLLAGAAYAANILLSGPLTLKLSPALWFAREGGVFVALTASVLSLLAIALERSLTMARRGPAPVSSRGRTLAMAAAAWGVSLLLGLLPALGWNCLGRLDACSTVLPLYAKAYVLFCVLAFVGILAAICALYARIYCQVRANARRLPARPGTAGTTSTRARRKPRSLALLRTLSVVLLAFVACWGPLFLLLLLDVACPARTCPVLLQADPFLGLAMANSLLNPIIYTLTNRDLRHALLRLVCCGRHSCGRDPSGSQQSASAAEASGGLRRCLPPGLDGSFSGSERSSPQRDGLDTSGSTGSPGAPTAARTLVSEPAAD

Row | SMILES | EC50 [1] [µM] | EC50 [2] [µM] | EC50 [3] [µM] | EC50 [4] [µM]
1 | O=C(O)C1CC(N2CCc3nc(C#Cc4ccc(Cl)cc4)ncc3C2)C1 (centres unmarked) [Compound 54, 3-(2-((4-chlorophenyl)ethynyl)-7,8-dihydropyrido[4,3-d]pyrimidin-6(5H)-yl)cyclobutanecarboxylic acid] | 1 to 10 | > 1 | > 1 | > 1
2 | Cc1ccccc1C#Cc1ncc2c(n1)CCN(C1CC(C(=O)O)C1)C2 (centres unmarked) [Compound 55, 3-(2-(o-tolylethynyl)-7,8-dihydropyrido[4,3-d]pyrimidin-6(5H)-yl)cyclobutanecarboxylic acid] | 1 to 10 | > 1 | > 1 | > 1
3 | CCOc1ccc(C#Cc2ncc3c(n2)CCN(C2CC(C(=O)O)C2)C3)cc1 (centres unmarked) [Compound 56, 3-(2-((4-ethoxyphenyl)ethynyl)-7,8-dihydropyrido[4,3-d]pyrimidin-6(5H)-yl)cyclobutanecarboxylic acid] | 1 to 10 | > 1 | > 1 | > 1
4 | O=C(O)C1CC(N2CCc3nc(C#Cc4ccc(F)cc4)ncc3C2)C1 (centres unmarked) [Compound 57, 3-(2-((4-fluorophenyl)ethynyl)-7,8-dihydropyrido[4,3-d]pyrimidin-6(5H)-yl)cyclobutanecarboxylic acid] | 1 to 10 | > 1 | > 1 | > 1
5 | CC(C)c1ccc(C#Cc2ncc3c(n2)CCN(C2CC(C(=O)O)C2)C3)cc1 (centres unmarked) [Compound 58, 3-(2-((4-isopropylphenyl)ethynyl)-7,8-dihydropyrido[4,3-d]pyrimidin-6(5H)-yl)cyclobutanecarboxylic acid] | 1 to 10 | > 1 | > 1 | > 1
6 | O=C(O)C1CC(N2CCc3nc(C#Cc4ccc(OCc5ccccc5)cc4)ncc3C2)C1 (centres unmarked) [Compound 59, 3-(2-((4-(benzyloxy)phenyl)ethynyl)-7,8-dihydropyrido[4,3-d]pyrimidin-6(5H)-yl)cyclobutanecarboxylic acid] | 1 to 10 | > 1 | > 1 | > 1
7 | O=C(O)C1CC(N2CCc3nc(C#Cc4ccccc4Cl)ncc3C2)C1 (centres unmarked) [Compound 60, 3-(2-((2-chlorophenyl)ethynyl)-7,8-dihydropyrido[4,3-d]pyrimidin-6(5H)-yl)cyclobutanecarboxylic acid] | 1 to 10 | > 1 | > 1 | > 1
8 | O=C(O)C1CC(N2CCc3nc(C#Cc4cc(F)cc(F)c4)ncc3C2)C1 (centres unmarked) [Compound 61, 3-(2-((3,5-difluorophenyl)ethynyl)-7,8-dihydropyrido[4,3-d]pyrimidin-6(5H)-yl)cyclobutanecarboxylic acid] | 1 to 10 | > 1 | > 1 | > 1
9 | O=C(O)C1CC(N2CCc3nc(C#Cc4cccc(Cl)c4)ncc3C2)C1 (centres unmarked) [Compound 62, 3-(2-((3-chlorophenyl)ethynyl)-7,8-dihydropyrido[4,3-d]pyrimidin-6(5H)-yl)cyclobutanecarboxylic acid] | 1 to 10 | > 1 | > 1 | > 1
10 | CC(CCC(=O)O)N1CCc2nc(-c3ccc(OCc4ccccc4)cc3)ncc2C1 (centres unmarked) [Compound 64, 4-(2-(4-(benzyloxy)phenyl)-7,8-dihydropyrido[4,3-d]pyrimidin-6(5H)-yl)pentanoic acid] | < 0.01 | > 1 | > 1 | > 1
11 | CC(CCC(=O)O)N1CCc2nc(-c3ccc(OCc4cccc(Cl)c4)cc3)ncc2C1 (centres unmarked) [Compound 65, 4-(2-(4-((3-chlorobenzyl)oxy)phenyl)-7,8-dihydropyrido[4,3-d]pyrimidin-6(5H)-yl)pentanoic acid] | 0.01 to 0.1 | > 1 | > 1 | > 1
12 | CC(CCC(=O)O)N1CCc2nc(-c3ccc(OCc4ccc(Cl)cc4)cc3)ncc2C1 (centres unmarked) [Compound 66, 4-(2-(4-((4-chlorobenzyl)oxy)phenyl)-7,8-dihydropyrido[4,3-d]pyrimidin-6(5H)-yl)pentanoic acid] | < 0.01 | > 1 | > 1 | > 1
13 | O=C(O)CCN1CCc2nc(-c3ccc(OCc4ccc(Cl)cc4)cc3)ncc2C1 [Compound 74, 3-(2-(4-((4-chlorobenzyl)oxy)phenyl)-7,8-dihydropyrido[4,3-d]pyrimidin-6(5H)-yl)propanoic acid] | < 0.01 | > 1 | > 1 | > 1
14 | O=C(O)CCN1CCc2nc(-c3ccc(OCc4cccc(OC(F)(F)F)c4)cc3)ncc2C1 [Compound 82, 3-(2-(4-((3-(trifluoromethoxy)benzyl)oxy)phenyl)-7,8-dihydropyrido[4,3-d]pyrimidin-6(5H)-yl)propanoic acid] | < 0.01 | > 1 | > 1 | > 1
15 | O=C(O)CCN1CCc2nc(-c3ccc(OCc4ccc(OC(F)F)cc4)cc3)ncc2C1 [Compound 83, 3-(2-(4-((4-(difluoromethoxy)benzyl)oxy)phenyl)-7,8-dihydropyrido[4,3-d]pyrimidin-6(5H)-yl)propanoic acid] | < 0.01 | > 1 | > 1 | > 1
16 | O=C(O)CCN1CCc2nc(-c3ccc(OCc4ccc(OC(F)(F)F)cc4)cc3)ncc2C1 [Compound 85, 3-(2-(4-((4-(trifluoromethoxy)benzyl)oxy)phenyl)-7,8-dihydropyrido[4,3-d]pyrimidin-6(5H)-yl)propanoic acid] | < 0.01 | > 1 | > 1 | > 1
17 | CC(C)(C)c1ccc(COc2ccc(-c3ncc4c(n3)CCN(CCC(=O)O)C4)cc2)cc1 [Compound 87, 3-(2-(4-((4-(tert-butyl)benzyl)oxy)phenyl)-7,8-dihydropyrido[4,3-d]pyrimidin-6(5H)-yl)propanoic acid] | 0.01 to 0.1 | > 1 | > 1 | > 1
18 | Cc1ccc(C(F)(F)F)cc1COc1ccc(-c2ncc3c(n2)CCN(CCC(=O)O)C3)cc1 [Compound 88, 3-(2-(4-((2-methyl-5-(trifluoromethyl)benzyl)oxy)phenyl)-7,8-dihydropyrido[4,3-d]pyrimidin-6(5H)-yl)propanoic acid] | < 0.01 | > 1 | > 1 | > 1
19 | Cc1ccc(COc2ccc(-c3ncc4c(n3)CCN(CCC(=O)O)C4)cc2)cc1C(F)(F)F [Compound 89, 3-(2-(4-((4-methyl-3-(trifluoromethyl)benzyl)oxy)phenyl)-7,8-dihydropyrido[4,3-d]pyrimidin-6(5H)-yl)propanoic acid] | < 0.01 | > 1 | > 1 | > 1
20 | CCc1cccc(Cl)c1COc1ncc2c(n1)CCN(CCC(=O)O)C2 [Compound 96, 3-(2-((2-chloro-6-ethylbenzyl)oxy)-7,8-dihydropyrido[4,3-d]pyrimidin-6(5H)-yl)propanoic acid] | 1 to 10 | > 1 | > 1 | > 1
21 | Cc1cc(-c2ccc3c(n2)CCN(CCCC(=O)O)C3)ccc1OCc1ccccc1 [Compound 114, 4-(2-(4-(benzyloxy)-3-methylphenyl)-7,8-dihydro-1,6-naphthyridin-6(5H)-yl)butanoic acid] | < 0.01 | > 1 | > 1 | > 1
22 | CCc1cccc(Cl)c1COc1ccc2c(n1)CCN(C1CC(C(=O)O)C1)C2 (centres unmarked) [Compound 118, 3-(2-((2-chloro-6-ethylbenzyl)oxy)-7,8-dihydro-1,6-naphthyridin-6(5H)-yl)cyclobutanecarboxylic acid] | < 0.01 | > 1 | > 1 | > 1
23 | O=C(O)C1CC(N2CCc3nc(C#Cc4ccccc4)ccc3C2)C1 (centres unmarked) [Compound 119, 3-(2-(phenylethynyl)-7,8-dihydro-1,6-naphthyridin-6(5H)-yl)cyclobutanecarboxylic acid] | 1 to 10 | > 1 | > 1 | > 1
24 | O=C(O)C1CC(N2CCc3nc(C#Cc4ccc(Cl)cc4)ccc3C2)C1 (centres unmarked) [Compound 120, 3-(2-((4-chlorophenyl)ethynyl)-7,8-dihydro-1,6-naphthyridin-6(5H)-yl)cyclobutanecarboxylic acid] | 1 to 10 | > 1 | > 1 | > 1
25 | Cc1ccccc1C#Cc1ccc2c(n1)CCN(C1CC(C(=O)O)C1)C2 (centres unmarked) [Compound 121, 3-(2-(o-tolylethynyl)-7,8-dihydro-1,6-naphthyridin-6(5H)-yl)cyclobutanecarboxylic acid] | 1 to 10 | > 1 | > 1 | > 1
26 | CCOc1ccc(C#Cc2ccc3c(n2)CCN(C2CC(C(=O)O)C2)C3)cc1 (centres unmarked) [Compound 122, 3-(2-((4-ethoxyphenyl)ethynyl)-7,8-dihydro-1,6-naphthyridin-6(5H)-yl)cyclobutanecarboxylic acid] | 1 to 10 | > 1 | > 1 | > 1
